Laboratory results taken from patent US11897862B2 (Gilead Sciences, Inc., priority 2022, dated 2024).

Assays:
IKZF1 = molecular target: T1, IKZF1 (Homo sapiens, UniProt Q13422+Q96SW2); assay: HEK293 HiBiT in vitro degradation of IKZF1; type: cell-based; conditions: for DC50 / IKZF1 Dmax: HEK293 HiBiT; for DC50: 18-24 hr incubation, normalized to DMSO control, read-out: IKZF1 EC50; for Dmax: HEK293, HEK293 HiBiT; for Dmax / IKZF1 Dmax: maximum degradation at the highest concentration tested
T1 construct: expressed in transfected cells
T1 sequence (Q13422 whole entry): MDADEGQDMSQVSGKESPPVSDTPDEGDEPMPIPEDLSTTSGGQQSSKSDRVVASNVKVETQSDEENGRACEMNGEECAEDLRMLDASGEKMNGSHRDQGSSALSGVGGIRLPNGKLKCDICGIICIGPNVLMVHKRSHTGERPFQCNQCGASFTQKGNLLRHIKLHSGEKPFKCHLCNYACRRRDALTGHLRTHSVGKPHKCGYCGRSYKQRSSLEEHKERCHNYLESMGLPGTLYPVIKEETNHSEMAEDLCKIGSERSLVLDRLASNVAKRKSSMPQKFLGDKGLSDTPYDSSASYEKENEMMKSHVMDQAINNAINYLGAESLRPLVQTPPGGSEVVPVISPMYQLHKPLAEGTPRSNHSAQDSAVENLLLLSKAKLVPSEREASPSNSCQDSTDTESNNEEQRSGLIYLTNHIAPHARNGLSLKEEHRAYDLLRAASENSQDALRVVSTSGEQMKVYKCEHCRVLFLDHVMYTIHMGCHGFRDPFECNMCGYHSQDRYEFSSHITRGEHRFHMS
T1 sequence (Q96SW2 whole entry): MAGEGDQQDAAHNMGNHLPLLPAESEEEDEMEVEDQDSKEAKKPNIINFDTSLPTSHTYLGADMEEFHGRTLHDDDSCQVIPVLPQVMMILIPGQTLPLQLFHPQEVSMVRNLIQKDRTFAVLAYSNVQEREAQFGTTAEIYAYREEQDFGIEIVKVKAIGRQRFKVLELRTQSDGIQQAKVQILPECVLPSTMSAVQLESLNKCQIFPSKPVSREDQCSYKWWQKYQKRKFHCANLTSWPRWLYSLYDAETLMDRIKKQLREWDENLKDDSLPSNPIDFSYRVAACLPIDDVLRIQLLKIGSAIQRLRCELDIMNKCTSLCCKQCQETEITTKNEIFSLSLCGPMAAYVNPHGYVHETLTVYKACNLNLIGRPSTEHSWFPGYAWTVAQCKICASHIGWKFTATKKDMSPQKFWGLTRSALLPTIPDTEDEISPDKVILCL
T1 sequence (Q16531 whole entry partner): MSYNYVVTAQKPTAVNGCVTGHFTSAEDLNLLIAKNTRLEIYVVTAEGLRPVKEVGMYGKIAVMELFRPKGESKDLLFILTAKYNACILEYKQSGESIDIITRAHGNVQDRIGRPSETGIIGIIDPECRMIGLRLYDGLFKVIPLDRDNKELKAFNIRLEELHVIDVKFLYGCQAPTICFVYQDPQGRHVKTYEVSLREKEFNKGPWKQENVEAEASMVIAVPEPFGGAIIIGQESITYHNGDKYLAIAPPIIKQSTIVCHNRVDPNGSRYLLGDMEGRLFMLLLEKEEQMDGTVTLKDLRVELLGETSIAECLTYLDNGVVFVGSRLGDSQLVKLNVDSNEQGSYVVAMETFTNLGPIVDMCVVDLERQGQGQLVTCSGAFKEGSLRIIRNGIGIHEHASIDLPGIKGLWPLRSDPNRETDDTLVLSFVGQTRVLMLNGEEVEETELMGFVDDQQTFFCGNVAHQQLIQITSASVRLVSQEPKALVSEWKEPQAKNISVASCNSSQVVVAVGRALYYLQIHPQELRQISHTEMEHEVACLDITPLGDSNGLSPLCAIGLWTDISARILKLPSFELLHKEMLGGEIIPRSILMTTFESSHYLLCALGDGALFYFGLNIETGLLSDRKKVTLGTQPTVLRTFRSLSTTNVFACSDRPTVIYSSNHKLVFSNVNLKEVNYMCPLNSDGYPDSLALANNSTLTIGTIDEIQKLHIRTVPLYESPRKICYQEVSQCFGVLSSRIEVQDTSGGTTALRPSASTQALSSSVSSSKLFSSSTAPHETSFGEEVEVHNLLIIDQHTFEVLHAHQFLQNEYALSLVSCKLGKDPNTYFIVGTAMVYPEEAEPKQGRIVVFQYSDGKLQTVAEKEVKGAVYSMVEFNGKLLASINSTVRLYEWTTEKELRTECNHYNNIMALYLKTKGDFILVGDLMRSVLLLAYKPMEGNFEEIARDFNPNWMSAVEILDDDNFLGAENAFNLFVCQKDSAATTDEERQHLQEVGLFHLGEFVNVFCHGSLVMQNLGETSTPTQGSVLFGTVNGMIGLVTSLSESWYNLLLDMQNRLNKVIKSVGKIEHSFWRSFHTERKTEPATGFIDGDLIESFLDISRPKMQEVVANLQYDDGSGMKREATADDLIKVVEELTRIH
Method: (§1) In vitro degradation of IKZF1, IKZF2, and SALL4 was measured using HiBiT protein tagging and detection technology (Promega).
(§2) HiBit technology was used to develop the quantitative assays to measure the cellular IKZFs level by tagging an 11 amino acid HiBit peptides […] to the protein of interest. Reporter plasmids were generated by fusing a linker sequence ([…]) followed by the HiBit tag at the C-terminus of IKZF1, IKZF2, and SALL4. The fusion fragments were subsequently cloned into pcDNA5 pcDNA™5/FRT/TO plasmids (Thermo Fisher, cat #V652020) downstream of the tetracycline operator. The resulting plasmids were co-transfected with pOG44 Flp-Recombinase Expression Vector (Thermo Fisher, cat #V600520) into Flp-In™ T-REx HEK293 line (Thermo Fisher, cat #R78077) and a stable cell pool was selected by adding 100 µg/ml of Hygromycin (Thermo Fisher, cat #10687010). The reporter cell enabled Tet-On inducible reporter expression from a single copy of the integrated gene.
(§3) On Day 1, Cells were grown to ˜80% confluency in tissue culture medium (DMEM Glutamax (Gibco10569), 10% Tet free FBS (Takara 631106), and PenStrep Glutamin (Gibco 10378)) in tissue culture flasks. Doxycycline was then added to a final concentration of […] to induce reporter expression at 37° C. overnight.
(§4) On Day 2, 125 nL of serially-diluted solution of testing compounds were dispensed into 384-well white solid assay plates via ECHO acoustic liquid handler. Cells were lifted by 0.25% Trypsin (Gibco 25200) then pelleted by centrifugation (Beckman Avanti J-E) at 500×g for 5 min. Cell pellets were resuspended in TC medium at the concentration of 3e5/mL and 25 μL of cell suspension were added into each well of compound-spotted plates. The plates were returned to a 37° C. incubator overnight (18-24 hr).
(§5) On Day 3, assay plates were removed from the tissue culture incubator and 25 μL of Nano-Glo lytic detection system (Promega, cat #N3030) was added to each well. Plates were incubated at r.t. for 3 min with shaking, and luminescence was read using an Envision reader (Perkin Elmer).
(§6) To assess the IKZF1, IKZF2, and SALL4 degrader potential of exemplified compounds of this disclosure and certain Reference Compounds EC50 and Dmax values were determined for the compounds of Examples 1 to 383 and Reference Compounds A-1, B-1, B-2, B-3, B-4, and C-1 in the HiBiT assays. Asterisks (*) indicate examples for which the data shown represents an average of n≥3.

IKZF2 = IKZF2 (Homo sapiens, UniProt Q96SW2+Q9UKS7); assay: HEK293 HiBiT in vitro degradation of IKZF2; type: cell-based; set-up: expressed in transfected cells; conditions: for Dmax: HEK293, HEK293 HiBiT; for Dmax / IKZF2 Dmax: maximum degradation at the highest concentration tested; for DC50 / IKZF2 Dmax: HEK293 HiBiT; for DC50: 18-24 hr incubation, normalized to DMSO control, read-out: IKZF2 EC50
Sequence of IKZF2 (Q9UKS7 1-500 isoform Q9UKS7-2): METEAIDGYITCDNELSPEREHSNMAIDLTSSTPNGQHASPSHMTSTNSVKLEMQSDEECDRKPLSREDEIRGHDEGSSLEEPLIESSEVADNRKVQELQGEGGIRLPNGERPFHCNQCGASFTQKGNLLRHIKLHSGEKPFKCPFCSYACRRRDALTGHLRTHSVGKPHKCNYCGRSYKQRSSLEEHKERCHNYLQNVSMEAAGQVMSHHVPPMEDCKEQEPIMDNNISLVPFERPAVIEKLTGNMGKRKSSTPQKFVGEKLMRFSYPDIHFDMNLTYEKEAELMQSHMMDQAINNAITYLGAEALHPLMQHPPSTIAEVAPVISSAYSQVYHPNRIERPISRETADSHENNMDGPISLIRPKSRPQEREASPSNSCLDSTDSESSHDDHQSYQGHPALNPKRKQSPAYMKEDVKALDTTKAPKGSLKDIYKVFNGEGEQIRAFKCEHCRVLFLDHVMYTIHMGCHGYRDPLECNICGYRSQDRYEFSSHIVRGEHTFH
Sequence of IKZF2 (Q96SW2 whole entry): as the sequence (Q96SW2 whole entry) above
Sequence of IKZF2 (Q16531 whole entry partner): as the sequence (Q16531 whole entry partner) above
Method: as §1, §2, §3, §4, §5, §6

Row | Compound | DC50 (IKZF1) [nM] | Dmax (IKZF2) [%] | DC50 (IKZF2) [nM] | Dmax (IKZF1) [%] | IKZF1 Dmax (IKZF1) [%] | IKZF2 Dmax (IKZF2) [%]
1 | [2H]c1c([2H])c([2H])c(CN[C@H]2CCCC[C@@H]2Cc2ccc3c(c2)CN(C2CCC(=O)NC2=O)C3=O)c([2H])c1[2H] (single isomer, unassigned) [Example 25] | – | 87 | – | – | – | –
2 | [2H]C([2H])(N[C@H]1CCCC[C@@H]1Cc1ccc2c(c1)CN(C1CCC(=O)NC1=O)C2=O)c1ccccc1 (single isomer, unassigned) [Example 97] | – | 92 | – | 30 | – | –
3 | O=C1CCC(N2Cc3cc(C[C@H]4CCCC[C@@H]4NCc4ccccc4)ccc3C2=O)C(=O)N1 (single isomer, unassigned) [Example 98] | > 1000 | – | 41 | – | – | –
4 | [2H]c1c([2H])c([2H])c(C([2H])([2H])N[C@H]2CCCC[C@@H]2Cc2ccc3c(c2)CN(C2CCC(=O)NC2=O)C3=O)c([2H])c1[2H] (single isomer, unassigned) [Example 98] | – | 87 | – | – | – | –
5 | [2H]c1c([2H])c([2H])c(C([2H])N[C@H]2CCCC[C@@H]2Cc2ccc3c(c2)CN(C2CCC(=O)NC2=O)C3=O)c([2H])c1[2H] (single isomer, unassigned) [Example 120] | – | 90 | – | 29 | – | –
6 | O=C1CCC(N2Cc3cc(C[C@H]4CCC[C@H](O)[C@@H]4NC4CCC(F)(F)CC4)ccc3C2=O)C(=O)N1 (single isomer, unassigned) [Example 151] | > 1000 | 87 | 22 | – | – | –
7 | CC(N[C@H]1CCCC[C@@H]1Cc1ccc2c(c1)CN(C1CCC(=O)NC1=O)C2=O)C1(F)CC1 (single isomer, unassigned) [Example 224] | > 1000 | 96 | 2 | – | – | –
8 | CC(CC1CC1)N[C@H]1CCCC[C@@H]1Cc1ccc2c(c1)CN(C1CCC(=O)NC1=O)C2=O (single isomer, unassigned) [Example 231] | > 1000 | – | 3 | – | – | 96
9 | CCC(N[C@H]1CCCC[C@@H]1Cc1ccc2c(c1)CN(C1CCC(=O)NC1=O)C2=O)C1CC1 (single isomer, unassigned) [Example 232] | > 1000 | 93 | 21 | – | – | –
10 | CCC(N[C@H]1CCCC[C@@H]1Cc1ccc2c(c1)CN(C1CCC(=O)NC1=O)C2=O)C1CC1 (single isomer, unassigned) [Example 233] | > 1000 | – | 3 | – | – | 97
11 | CC(N[C@H]1CCCO[C@@H]1Cc1ccc2c(c1F)CN(C1CCC(=O)NC1=O)C2=O)C1CCC1 (single isomer, unassigned) [Example 248] | > 1000 | – | 21 | – | – | 92
12 | CC(CC(F)(F)F)N[C@H]1CCCC[C@@H]1Cc1ccc2c(c1)CN(C1CCC(=O)NC1=O)C2=O (single isomer, unassigned) [Example 249] | > 1000 | 97 | 4 | – | – | –
13 | CC(N[C@H]1CCCC[C@@H]1Cc1ccc2c(c1)CN(C1CCC(=O)NC1=O)C2=O)C1CCCO1 (single isomer, unassigned) [Example 253] | > 1000 | 96 | 9 | – | – | –
14 | CC(N[C@H]1CCCC[C@@H]1Cc1ccc2c(c1)CN(C1CCC(=O)NC1=O)C2=O)C1CCCO1 (single isomer, unassigned) [Example 254] | > 1000 | – | 33 | – | – | 84
15 | CC(N[C@H]1CCCC[C@@H]1Cc1ccc2c(c1)CN(C1CCC(=O)NC1=O)C2=O)C1(C#N)CC1 (single isomer, unassigned) [Example 255] | > 1000 | – | 32 | – | – | 87
16 | O=C1CCC(N2Cc3cc(C[C@H]4CCCC[C@@H]4NC4CCCOC4)ccc3C2=O)C(=O)N1 (single isomer, unassigned) [Example 260] | > 1000 | 96 | 5 | – | – | –

More lines, now with the values ahead:

Row | DC50 (IKZF1) [nM] | Dmax (IKZF2) [%] | DC50 (IKZF2) [nM] | Dmax (IKZF1) [%] | IKZF1 Dmax (IKZF1) [%] | IKZF2 Dmax (IKZF2) [%] | Compound
17 | > 1000 | 89 | 15 | – | – | – | O=C1CCC(N2Cc3cc(C[C@H]4CCCC[C@@H]4N[C@@H]4CCC(F)(F)C4)ccc3C2=O)C(=O)N1 (relative stereo) [Example 302, 3-(5-(((1R,2S)-rel-2-(((R)-3,3-difluorocyclopentyl)amino)cyclohexyl)methyl)-1-oxoisoindolin-2-yl)piperidine-2,6-dione]
18 | > 1000 | 82 | 86 | – | – | – | C[C@@H]1CCCC[C@H]1N[C@H]1CCCC[C@@H]1Cc1ccc2c(c1)CN(C1CCC(=O)NC1=O)C2=O (relative stereo) [Example 303]
19 | > 500 | 90 | 27 | – | – | – | O=C1CCC(N2Cc3cc(C[C@H]4CCC[C@H](O)[C@@H]4NC4CCCCC4)ccc3C2=O)C(=O)N1 (relative stereo) [Example 310, 3-(5-(((1R,2R,3S)-rel-2-(cyclohexylamino)-3-hydroxycyclohexyl)methyl)-1-oxoisoindolin-2-yl)piperidine-2,6-dione]
20 | > 1000 | – | 23 | – | – | – | O=C1CCC(N2Cc3cc(C[C@H]4CCCC[C@@H]4NCc4ccccc4)ccc3C2=O)C(=O)N1 (single isomer, unassigned) [Example 25]
21 | 85 | – | 36 | – | – | – | O=C1CCC(N2Cc3cc(C[C@H]4CCCC[C@@H]4NCc4ccccc4)ccc3C2=O)C(=O)N1 (single isomer, unassigned) [Example 97]
22 | 100 | – | 33 | – | – | – | O=C1CCC(N2Cc3cc(C[C@H]4CCCC[C@@H]4NCc4ccccc4)ccc3C2=O)C(=O)N1 (single isomer, unassigned) [Example 120]
23 | 68 | 97 | 3 | 26 | – | – | O=C1CCC(N2Cc3cc(C[C@H]4CCCC[C@@H]4NC4CCC(C(F)(F)F)CC4)ccc3C2=O)C(=O)N1 (single isomer, unassigned) [Example 121]
24 | 168 | – | 2 | – | 34 | 95 | O=C1CCC(N2Cc3cc(C[C@H]4CCCC[C@@H]4NC4CCC(OC(F)(F)F)CC4)ccc3C2=O)C(=O)N1 (single isomer, unassigned) [Example 146]
25 | 77 | 97 | 2 | 36 | – | – | CC(C)OC1CCC(N[C@H]2CCCC[C@@H]2Cc2ccc3c(c2)CN(C2CCC(=O)NC2=O)C3=O)CC1 (single isomer, unassigned) [Example 167]
26 | 246 | – | 3 | – | 39 | 97 | CC(C)OC1CCC(N[C@H]2CCCC[C@@H]2Cc2ccc3c(c2)CN(C2CCC(=O)NC2=O)C3=O)CC1 (single isomer, unassigned) [Example 168]
27 | > 500 | – | 11 | – | – | 94 | CC(N[C@H]1CCCC[C@@H]1Cc1ccc2c(c1)CN(C1CCC(=O)NC1=O)C2=O)C1(F)CC1 (single isomer, unassigned) [Example 225]
28 | 17 | 93 | 14 | 84 | – | – | CC(N[C@H]1CCCC[C@@H]1Cc1ccc2c(c1)CN(C1CCC(=O)NC1=O)C2=O)C(C)(C)F (single isomer, unassigned) [Example 226]
29 | > 500 | – | 20 | – | – | 86 | CC(N[C@H]1CCCC[C@@H]1Cc1ccc2c(c1)CN(C1CCC(=O)NC1=O)C2=O)C(C)(C)F (single isomer, unassigned) [Example 227]
30 | 66 | 96 | 3 | 30 | – | – | CC(CC1CC1)N[C@H]1CCCC[C@@H]1Cc1ccc2c(c1)CN(C1CCC(=O)NC1=O)C2=O (single isomer, unassigned) [Example 230]
31 | 78 | 97 | 4 | 30 | – | – | CC1(C)CCC(N[C@H]2CCCO[C@@H]2Cc2ccc3c(c2F)CN(C2CCC(=O)NC2=O)C3=O)C1 (single isomer, unassigned) [Example 258]
32 | 68 | – | 11 | – | 25 | 96 | CC1(C)CCC(N[C@H]2CCCO[C@@H]2Cc2ccc3c(c2F)CN(C2CCC(=O)NC2=O)C3=O)C1 (single isomer, unassigned) [Example 259]
